Data as given in US5378718A, “1,4-dihydropyridine derivatives” (Cedona Pharmaceuticals B.V., priority 1990, dated 1995).

Tests used:
[1] = system: contracted rat aorta; assay: In vitro rat aorta assay, relaxation of KCl-contracted aorta strips; assay type: cell-based; conditions: rat thoracic aorta strips contracted with 50 mM KCl, 1.25 mM CaCl2; concentration at which residual contraction is 50% of maximum
Experimental: Strips of thoracial rat aortae (without aortic arch, helically cut; length 1-1.5 cm; width about 2 mm) were place in an organ bath [20 ml; Krebs Ringer medium bubbled with O2 /CO2 (95/5%) at 37` C.]. A resting tension of 0.5 g was applied and the preparations were equilibrated during 100 min (fresh buffer solution every 20 min). The strips were isotonically contracted with 50 mM KCl (equimolar part of NaCl in buffer omitted) in the presence of 1.25 mM CaCl2.
Drug-induced relaxation was tested at increasing concentration (half log steps), till maximal or full relaxation (corresponding to basal precontraction value of organ length) had been reached.
Responses were calculated as change in organ length relatively to maximal displacement by contraction, EC50 values corresponding to the drug concentration at which residual contraction is 50% of maximum.

[2] = system: arterial blood pressure; assay: Anesthetized rabbit experiments, lowering of arterial blood pressure; assay type: in vivo, New Zealand white rabbits; design: key: Inactive: No decrease or decrease less than 5%; Active: Decrease between 5 and 40%; Very Active: Decrease greater than 40%; conditions: end of 10 min i.v. infusion at highest dose tested (150-200 μg×kg^-1×min^-1), decrease as percentage of basal value
Experimental: […]
Animals Anesthesia and Surgical Procedures
New Zealand white rabbits (2.5-3 kg) were anesthetized (30 mg×kg^-1 pentobarbitone, i.v., supplemetal doses as needed). Tracheotomy was performed, and an intra-tracheal cannula was inserted. No artificial ventilation was applied and body temperature was maintained at 37°-38° C.
Left ventricular pressure (LVP) was measured (millar Mikro-Tip catheter via the right carotid artery with transducer in the left ventricle). The LVP signal was differentiated electronically to obtain the rate of change of LVP (LV dP/dt). The heart rate (HR) was derived from the LVP pulse signal. The jugular vein was cannulated for infusion of the test compounds. Aortic blood pressure (SAP and DAP) was monitored (Gould-Statham pressure transducer) by inserting a polyethylene catheter filled with heparin (50 IU×ml^-1) through the femoral artery into the abdominal aorta. Heparin (150 IU×kg^-1, i.v.) was administered to prevent blood clotting.
After completion of surgical procedures, the rabbits were allowed to recover for 15 minutes before drug administration was started.
Infusion of Test Compounds and Test Protocol
Drugs were infused at constant rate (0.5 ml×min^-1) for 10 minutes at various doses, resulting in a typical dose range of 2.0, 20.0 and 200 μg×kg^-1 ×min^-1 (2.5 kg rabbit).
Due to poor solubility, 1 mg×ml^-1 solutions of all the compounds tested were prepared in Intralipid^(R) 10%, containing 10% (v/v) dimethyl sulfoxide (DMSO). […] At the infusion of lower doses, the 1 mg×ml^-1 stock solutions were diluted with Intralipid^(R) 10%.
The presented data are based on the effects obtained at the end of the 10 min infusion period at the highest dose tested (150-200 μg×kg^-1 'min^-1).
The indicated ratings are referring to the effects (decrease, defined as percentage of basal value before infusion of the drug) on arterial blood pressure as follows: […]

EC50 [1] [nM]	Molecule	Activity with regard to the lowering of blood pressure [2]
7.8	CCOC(=O)C1=C(C)NC(C)=C(C(=O)OCC)C1c1ccccc1OC[C@H]1CC[C@H](CO[N+](=O)[O-])CC1 [Example XXIV, 3,5-Diethoxycarbonyl-2,6-dimethyl-4-[2-[(4-nitroxymethyl-(trans)-cyclohexyl)methoxy]phenyl]-1,4-dihydropyridine]	–
–	CCOc1cccc(C2C(C(=O)OC)=C(C)NC(C)=C2C(=O)OC)c1OCCO[N+](=O)[O-] [Example XVIII, 3,5-Dimethoxycarbonyl-2,6-dimethyl-4-[3-ethoxy-2-(2-nitroxyethoxy)phenyl]-1,4-dihydropyridine×H2 O]	Active
38	CCOC(=O)C1=C(C)NC(C)=C(C(=O)OCC)C1c1ccccc1OCCOCCOCCO[N+](=O)[O-] [Example XX, 3,5-Diethoxycarbonyl-2,6-dimethyl-4-(2-{2-[2-(2-nitroxy-ethoxy)ethoxy]ethoxy}-phenyl)-1,4-dihydropyridine]	Active
6.5	COC(=O)C1=C(C)NC(C)=C(C(=O)OC)C1c1ccccc1OC[C@H]1CC[C@H](CO[N+](=O)[O-])CC1 [Example XXXII, 3,5-Dimethoxycarbonyl-2,6-dimethyl-4-{2-[4-nitroxymethyl(trans)cyclohexylmethoxy]phenyl}-1,4-dihydropyridine]	–
–	CCOC(=O)C1=C(C)NC(C)=C(C(=O)OCC)C1c1ccc(OC(=O)CCCO[N+](=O)[O-])cc1 [Example I, 3,5-Diethoxycarbonyl-2,6-dimethyl-4-[4-(3-nitroxypropyl)carbonyloxy]phenyl-1,4-dihydropyridine]	Active
68	COC(=O)C1=C(C)NC(C)=C(C(=O)OC)C1c1ccccc1OC1CCCCC1O[N+](=O)[O-] (stereo not shown) [Example XXXVII, 3,5-Dimethoxycarbonyl-2,6-dimethyl-4-[2-(2-nitroxycyclohexoxy)phenyl]-1,4-dihydropyridine×methanol]	–
12	CCOC(=O)C1=C(C)NC(C)=C(C(=O)OC)C1c1ccccc1OCCCO[N+](=O)[O-] (stereo not shown) [Example XXVI, 2,6-Dimethyl-3-ethoxycarbonyl-5-methoxycarbonyl-4-[2-(3-nitroxypropoxy)phenyl]-1,4-dihydropyridine]	–
75	COC(=O)C1=C(C)NC(C)=C(C(=O)OC)C1c1ccccc1OC[C@@H](C)CO[N+](=O)[O-] [Example XXXVIII]	–
5	COC(=O)C1=C(C)NC(C)=C(C(=O)OC)C1c1ccccc1OCCCCCCCCO[N+](=O)[O-] [Example XXXV, 2,6-Dimethyl-3,5-dimethoxycarbonyl-4-[2-(8-nitroxyoctyloxy)phenyl]-1,4-dihydropyridine]	–
7.7	CCOC(=O)C1=C(C)NC(C)=C(C(=O)OCC)C1c1ccccc1OCCCO[N+](=O)[O-] [Example XXVIII]	–
80	COC(=O)C1=C(C)NC(C)=C(C(=O)OC)C1c1cc(Br)ccc1OCCO[N+](=O)[O-] [XIX, 4-[5-Bromo-2-(2-nitroxyethoxy)phenyl]-3,5-dimethoxy-carbonyl-2,6-dimethyl-1,4-dihydropyridine]	Active
9	COC(=O)C1=C(C)NC(C)=C(C(=O)OC)C1c1ccccc1OCCCCCCO[N+](=O)[O-] [Example XXX, 3,5-Dimethoxycarbonyl-2,6-dimethyl-4-[2-(6-nitroxyhexyloxy)phenyl]-1,4-dihydropyridine]	–
85	COC(=O)C1=C(C)NC(C)=C(C(=O)OC)C1c1cc(Cl)ccc1OCCO[N+](=O)[O-] [Example XV]	Active
16	COC(=O)C1=C(C)NC(C)=C(C(=O)OC)C1c1ccccc1OCC(C)O[N+](=O)[O-] (stereo not shown) [Example XXXIII, 3,5-Dimethoxycarbonyl-2,6-dimethyl-4-{2-[2-nitroxypropyloxy)phenyl}-1,4-dihydropyridine]	–
5.7	COC(=O)C1=C(C)NC(C)=C(C(=O)OC)C1c1ccccc1OCCCO[N+](=O)[O-] [Example XXVII, 3,5-Dimethoxycarbonyl-2,6-dimethyl-4-[2-(3-nitroxypropoxy)phenyl]-1,4-dihydropyridine]	–
60	CCOC(=O)C1=C(C)NC(C)=C(C(=O)OCC)C1c1ccccc1OCC(C)(C)CO[N+](=O)[O-] [Example XXII, 3,5-Diethoxycarbonyl-2,6-dimethyl-4-[2-(2,2-dimethyl-3-nitroxypropoxy)-phenyl]-1,4-dihydropyridine]	–
59	COC(=O)C1=C(C)NC(C)=C(C(=O)OC)C1c1ccccc1OCCO[N+](=O)[O-] [Example VII, 3,5-Dimethoxycarbonyl-2,6-dimethyl-4-[2-(2-nitroxy-ethoxy)phenyl]-1,4-dihydropyridine]	–
88	COC(=O)C1=C(C)NC(C)=C(C(=O)OC)C1c1cccc(OC)c1OCCO[N+](=O)[O-] [Example XVII, 3,5-Dimethoxycarbonyl-2,6-dimethyl-4-[3-methoxy-2-(2-nitroxyethoxy)phenyl]-1,4-dihydropyridine×H2 O]	Active
14	CCOC(=O)C1=C(C)NC(C)=C(C(=O)OCC)C1c1ccccc1OCCO[N+](=O)[O-] [Example XXI, 3,5-Diethoxycarbonyl-2,6-dimethyl-4-[2-(2-nitroxy-ethoxy)phenyl]-1,4-dihydropyridine]	–
28	CCOC(=O)C1=C(C)NC(C)=C(C(=O)OC)C1c1ccccc1OCC(C)(C)CO[N+](=O)[O-] (stereo not shown) [Example XXIII, 2,6-Dimethyl-4-[2-(2,2-dimethyl-3-nitroxypropoxy)-phenyl]-3-ethoxycarbonyl-5-methoxycarbonyl-1,4-dihydro-pyridine×H2 O]	–
67	CCOC(=O)C1=C(C)NC(C)=C(C(=O)OCC)C1c1ccccc1OCCCCCCCCCCO[N+](=O)[O-] [Example XXV, 3,5-Diethoxycarbonyl-2,6-dimethyl-4-[2-(10-nitroxy-decyloxy)phenyl]-1,4-dihydropyridine]	–
–	2,6-Dimethyl-3-methyloxycarbonyl-5-methyloxycarbonyl-4-[2-(nitroxyhexyloxyphenyl)]-1,4-dihydropyridine [Example XXXI]	Active

Molecule	EC50 [1] [nM]	Activity with regard to the lowering of blood pressure [2]
COC(=O)C1=C(C)NC(C)=C(C(=O)OC)C1c1cc([N+](=O)[O-])ccc1OCCO[N+](=O)[O-] [Example XIV, 3,5-Dimethoxycarbonyl-2,6-dimethyl-4-[2-(2-nitroxy-ethoxy)-5-nitrophenyl]-1,4-dihydropyridine]	80	–
CCOC(=O)C1=C(C)NC(C)=C(C(=O)OC)C1c1ccccc1OCCCCO[N+](=O)[O-] (stereo not shown) [Example XXIX, 2,6-Dimethyl-3-ethoxycarbonyl-5-methoxycarbonyl-4-[2-(4-nitroxybutoxy)phenyl]-1,4-dihydropyridine×2H2 O]	2.6	–
